Measurements taken from patent publication US10406150B2, “Method for treatment of primary hormone resistant endometrial and breast cancers” (Lipoxen Technologies Limited, priority 2014, dated 2019).

Test system: secondary PR negative Ishikawa cells
Assay: Model of secondary PR-negative endometrial cancer (progestin-resistant Ishikawa xenograft)
Assay type: in vivo, mice
Settings: day 7; MPA 250 mg/kg/day i.p. 5 days per week, SC 0.3 mg/kg i.m. each alternate day; mean ± SEM
Experimental: When the surviving cells had grown to a high density but were still less than confluent, cells were subcloned using 0.02% EDTA and 0.25% trypsin prepared in Hanks' balanced salt solution. MPA-containing medium was replaced every 2-3 days. Cells proliferating in 10 μM MPA with the same doubling time as the initial Ishikawa cells proliferating in the medium without MPA, were considered as secondary progestin-resistant Ishikawa cells.
2×10^6 secondary PR negative Ishikawa cells were inoculated into the flanks of MF-1 female nude mice in 100 μl Matrigel.
1) Vehicle control group: vehicle only, −0.9% sodium chloride for injection i.m each alternate day and i.p. for 5 days per week.
2) MPA only control group: medroxyprogesterone acetate (MPA) (250 mg/kg/day) i.p. for 5 days per week.
Tumors were measured with vernier calipers weekly. Tumor volumes (mm^3) were calculated using the modified ellipsoid formula: (length (mm)×width (mm)^2)/2. The ratio (percentage) of “Tumor volume at day n” to “tumor volume at day “0” was calculated for each animal. At the end of the experiments (day 35) animals were euthanized.

## CC(=O)O[C@]1(C(C)=O)CC[C@H]2[C@@H]3C[C@H](C)C4=CC(=O)CC[C@]4(C)[C@H]3CC[C@@]21C [MPA, medroxyprogesterone acetate]
  Tumor volume at day n/tumor volume at day “0”: 170 ± 19%
